In PMC12952245 (Cancer, 2025):

Legend:
[1] = Irinotecan and metabolites plasma pharmacokinetics (LC-MS/MS, noncompartmental)
Protocol: (§1) Berzosertib plasma protein binding was assessed in vitro using rapid equilibrium dialysis (RED) devices (Thermo Fisher Scientific, Waltham, Massachusetts).
(§2) Plasma pharmacokinetic parameters were derived from the data by noncompartmental methods with WinNonlin (Certara). Statistical analyses for pharmacokinetic parameter values were performed using SPSS 27.0 for Windows (SPSS Inc, Chicago, Illinois).

clinical = settings: human, in vivo
Protocol: as §1, §2

[2] = system: patients with advanced solid tumors; experiment: Phase 1 safety of berzosertib plus irinotecan: treatment-related adverse events (CTCAE v5.0), DLT, MTD/RP2D; type: in vivo
Protocol: Berzosertib was supplied under a Collaborative Research and Development Agreement among NCI, Vertex Pharmaceuticals, and EMD Serono. Irinotecan was obtained from commercial sources.
Treatment cycles were 28 days long (Supporting Information S1: Figure S1).
A history and physical examination were conducted at baseline and before each cycle. Complete blood counts and serum chemistries were performed at baseline and weekly during C1 and every 2 weeks thereafter. Toxicities were graded using NCI Common Terminology Criteria for Adverse Events (version 5.0) and defined as adverse events that were possibly, probably, or definitely related to treatment. Radiographic evaluation was performed at baseline and every 8 weeks for tumor response based on Response Evaluation Criteria in Solid Tumors (RECIST) version 1.1.
DLs were evaluated using a modified Storer’s up and down design with the plan of enrolling up to 36 evaluable patients during dose escalation (Supporting Information S1: Figure S1).[8] Stage I of the Modified Storer’s up and down design is single patient dose escalation until a DLT is observed. Once a DLT is observed, patients are treated in cohorts of five in stage II of the design. The MTD was defined as the highest DL tested at which ≤20% patients experience dose limiting toxicity (DLT) during C1 of therapy.

[3] = Berzosertib plasma protein binding in vitro, rapid equilibrium dialysis; type: in vitro ADME; settings: human plasma, 300 – 100,000 µg/L tested
[4] = set-up: method as in PMID 32568634; settings: highest dose level 240 mg/m^2 once or twice weekly; cited from earlier work
p-Chk1 = settings: reported value, no reference given; cited from earlier work
[5] = system: γH2AX, pS343-NBS1, and pS824-KAP1; experiment: Tumor DNA damage signaling, multiplex immunofluorescence of paired biopsies; type: in vivo, human; settings: 18–22 hours after end of irinotecan infusion (C1D-13), one colon cancer patient; 4% is the assay baseline
Description: Paired tumor biopsies were collected from patients enrolled in the expansion cohort. […] The staining of FFPE tissue sections used the BOND RX autostainer (Leica Biosystems). For γH2AX and […]-NBS1 analysis, biotin-conjugated γH2AX (clone JBW301; EMD Millipore) and a custom-conjugated […]-NBS1-DIG (clone EP178; Abcam) antibodies were detected with the use of streptavidin labeled with Alexa Fluor 488 and Alexa Fluor 647 custom-conjugated IgG Fraction Monoclonal Mouse Anti-Digoxin antibody, respectively. For […]-KAP1 analysis, anti-[…]-KAP1 antibody (clone EPR5248; Abcam) custom conjugated to dinitrophenol (Molecular Probes, Inc) was detected using Alexa Fluor 488 conjugated anti-dinitrophenyl KLH rabbit polyclonal antibody. In addition, β-catenin antibody custom conjugated to Alexa Fluor 546 was used to define tumor areas in all biomarker analyses. For γH2AX and […]-NBS1 analysis, fluorescent whole slide images were acquired at 20× using Leica's Aperio FL scanner. Images were then analyzed using a custom algorithm build in Definiens Tissue Studio Analysis software (formerly Definiens AG). For […]-KAP1 analysis, whole slide fluorescent images were acquired at 20× using ZEISS Axioscan 7 scanner. Images were analyzed using a custom algorithm in HALO software (Indica Labs).

[6] = system: ATM and H2AX phosphorylation in PBMCs; experiment: PBMC DNA damage signaling, quasi-quantitative dual multiplexed immunoblot; type: in vivo, human
Protocol: Blood was processed and analysis performed as described.[11]–[13]

[7] = D15, irinotecan 180/150 mg/m^2 with berzosertib (N=41), geometric mean (SD)
[8] = D-14, irinotecan 180 mg/m^2 alone (N=55), geometric mean (SD)
[9] = N=39, with/without berzosertib, geometric mean (SD)
[10] = irinotecan 180 mg/m^2 (N=55), D-14 (alone), geometric mean (SD)

Question: Which “APC/ IRI AUC Ratio” value [1, 7] does the source give for `CCc1c2c(nc3ccc(OC(=O)N4CCC(NCCCCC(=O)O)CC4)cc13)-c1cc3c(c(=O)n1C2)COC(=O)[C@]3(O)CC` [APC] here?
Answer: 0.221 (1.96)

Question: What about the “APC/ IRI AUC Ratio” value [1, 8] of the same molecule?
Answer: 0.196 (1.80)

Question: What about the “APC/ IRI AUC Ratio, D15/D-14” value [1, 9] of the same molecule?
Answer: 1.09 (1.50)

Question: What about the “APC AUC0-inf” value ([1]; human, in vivo, 180 mg/m2) of the same molecule?
Answer: 2.74 (1.92) mg/L•h

Question: And the “APC Cmax” value ([1]; human, in vivo, 180 mg/m2)?
Answer: 201 (1.81) µg/L

Question: What about the “APC t½” value ([1]; irinotecan 180 mg/m^2 (N=55), day -14 of cycle 1, geometric mean (SD)) of the same molecule?
Answer: 12.1 (1.3) h

Question: With `CCc1c2c(nc3ccc(O)cc13)-c1cc3c(c(=O)n1C2)COC(=O)[C@]3(O)CC` [SN38] as the molecule, how does the “SN38/ IRI AUC Ratio” value [1, 7] read?
Answer: 0.0282 (1.70)

Question: What about the “SN38/ IRI AUC Ratio” value [1, 8] of the same molecule?
Answer: 0.0268 (1.56)

Question: And the “SN38/ IRI AUC Ratio, D15/D-14” value [1, 9]?
Answer: 1.07 (1.48)

Question: What about the “90% CI of the AUC ratio (presence/absence of berzosertib)” value ([1]; bioequivalence approach) of the same molecule?
Answer: fell within the traditional boundaries of 80%–125%

Question: And the “SN38 AUC ratio D15/D-14, L-90%CI” value ([1]; bioequivalence assessment, lower 90% confidence interval)?
Answer: 93.6%

Question: What about the “SN38 AUC ratio D15/D-14, Average BE” value ([1]; bioequivalence assessment, presence/absence of berzosertib) of the same molecule?
Answer: 106.6%

Question: And the “SN38 AUC ratio D15/D-14, U-90%CI” value ([1]; bioequivalence assessment, upper 90% confidence interval)?
Answer: 121.5%

Question: And the “SN38 AUC0-inf” value [1, 10]?
Answer: 0.38 (1.8) mg/L•h

Question: And the “SN38 Cmax” value [1, 10]?
Answer: 25.0 (1.78) µg/L

Question: And the “SN38 t½” value [1, 10]?
Answer: 19.9 (1.3) h

Question: And the “SN38 AUC Ratio D15/D-14” value ([1]; presence/absence of berzosertib, dose-normalized AUC, geometric mean (SD))?
Answer: 1.07 (1.7)

Question: With `CNCc1ccc(-c2cc(-c3nc(-c4ccc(S(=O)(=O)C(C)C)cc4)cnc3N)on2)cc1` [berzosertib] as the molecule, how does the Cl (clinical) read?
Answer: 24.3 (1.30) L/h/m^2

Question: What about the Cmax/Dose (clinical) of the same molecule?
Answer: 4.90 (1.45) µg/L / mg/m^2

Question: What about the Tmax (clinical) of the same molecule?
Answer: 0.61 h

Question: And the Vss (clinical)?
Answer: 530 (1.30) L/m^2

Question: And the Vz (clinical)?
Answer: 612 (1.31) L/m^2

Question: And the AUC(0-inf) (clinical; 60 mg/m2)?
Answer: 2330 ng·h/mL

Question: And the Cl (clinical; 60 mg/m2)?
Answer: 25.7 (-) L/h/m^2

Question: What about the Cmax (clinical; 60 mg/m2) of the same molecule?
Answer: 343 ng/mL

Question: And the Cmax/Dose (clinical; 60 mg/m2)?
Answer: 5.72 (-) µg/L / mg/m^2

Question: What about the Tmax (clinical; 60 mg/m2) of the same molecule?
Answer: 0.45 h

Question: What about the Vss (clinical; 60 mg/m2) of the same molecule?
Answer: 459 (-) L/m^2

Question: What about the half-life (clinical; 60 mg/m2) of the same molecule?
Answer: 14.4 h

Question: What about the AUC(0-inf) (clinical; 120 mg/m2) of the same molecule?
Answer: 4190 ng·h/mL

Question: And the Cl (clinical; 120 mg/m2)?
Answer: 28.7 (1.40) L/h/m^2

Question: What about the Cmax (clinical; 120 mg/m2) of the same molecule?
Answer: 535 ng/mL

Question: What about the Tmax (clinical; 120 mg/m2) of the same molecule?
Answer: 0.54 h

Question: And the half-life (clinical; 120 mg/m2)?
Answer: 14.1 h

Question: And the AUC(0-inf) (clinical; 180 mg/m2)?
Answer: 8550 ng·h/mL

Question: And the Cl (clinical; 180 mg/m2)?
Answer: 21.1 (1.20) L/h/m^2

Question: And the Cmax (clinical; 180 mg/m2)?
Answer: 1060 ng/mL

Question: And the Cmax/Dose (clinical; 180 mg/m2)?
Answer: 5.92 (1.44) µg/L / mg/m^2

Question: What about the Tmax (clinical; 180 mg/m2) of the same molecule?
Answer: 0.66 h

Question: And the Vss (clinical; 180 mg/m2)?
Answer: 422 (1.37) L/m^2

Question: And the half-life (clinical; 180 mg/m2)?
Answer: 16.1 h

Question: And the AUC(0-inf) (clinical; 270 mg/m2)?
Answer: 11000 ng·h/mL

Question: What about the Cl (clinical; 270 mg/m2) of the same molecule?
Answer: 24.6 (1.30) L/h/m^2

Question: And the Cmax (clinical; 270 mg/m2)?
Answer: 1260 ng/mL

Question: And the Cmax/Dose (clinical; 270 mg/m2)?
Answer: 4.67 (1.46) µg/L / mg/m^2

Question: And the Tmax (clinical; 270 mg/m2)?
Answer: 0.61 h

Question: And the Vss (clinical; 270 mg/m2)?
Answer: 578 (1.24) L/m^2

Question: And the half-life (clinical; 270 mg/m2)?
Answer: 18.8 h

Question: And the half-life (clinical; iv)?
Answer: ~17 h

Question: What about the total clearance (clinical; iv) of the same molecule?
Answer: 24 L/h/m^2

Question: And the volume of distribution (clinical; iv)?
Answer: approximately 530 L/m^2

Question: And the “berzosertib exposure (AUC) versus cycle 1 toxicity grade” value ([2]; human, in vivo)?
Answer: higher in patients with C1 higher any grade toxicity and higher hematologic grade toxicity

Question: And the “MTD and RP2D, berzosertib dose” value ([2]; with irinotecan 180 mg/m^2, iv every 2 weeks (DL4))?
Answer: 270 mg/m^2

Question: And the “concentration from which the free fraction increased (plasma protein binding)” value [3]?
Answer: approximately 30 μg/mL

Question: What about the “dose-limiting toxicities, monotherapy” value [4] of the same molecule?
Answer: no dose-limiting toxicities

Question: And the “human equivalent p-Chk1 IC50” value (p-Chk1)?
Answer: approximately 110 ng/mL

Question: What does the source list for `CCc1c2c(nc3ccc(OC(=O)N4CCC(N5CCCCC5)CC4)cc13)-c1cc3c(c(=O)n1C2)COC(=O)[C@]3(O)CC` [irinotecan]?
Answer: γH2AX and pNBS1 in tumor biopsy [5]: > 4 % nuclear area positive (NAP); MTD and RP2D, irinotecan dose ([2]; with berzosertib 270 mg/m^2, iv every 2 weeks (DL4)): 180 mg/m^2; induction of H2AX phosphorylation in PBMCs ([6]; 4 hours 30 minutes, returned to baseline by 24 hours): 10 fold; induction of ATM in PBMCs ([6]; irinotecan alone (C1D-14)): no induction of ATM; AUC(0-inf) ([1]; human, in vivo, 180 mg/m2): 14000 ng·h/mL; Cmax ([1]; human, in vivo, 180 mg/m2): 2180 ng/mL
